In ChEMBL document CHEMBL3813667, “Triterpene sapogenin-polyarginine conjugates exhibit promising antibacterial activity against Gram-positive strains” (Bioorg Med Chem, 2016):
Converted amounts (≈) assume the structure as drawn. The source made the active and inactive calls. The calls are words filed in the database; no cut-off is given here.

Key:
Bacillus spizizenii [1] = test: Antibacterial activity against Bacillus subtilis ATCC 6633 after 16 hrs by broth microdilution method in presence of peptide-R3; assay type: functional; conditions: ATCC 6633, 16 h
Staphylococcus aureus [2] = test: Antibacterial activity against Staphylococcus aureus ATCC 25923 after 16 hrs by broth microdilution method in presence of peptide-R3; assay type: functional; conditions: ATCC 25923, 16 h
Staphylococcus aureus [3] = test: Antibacterial activity against Staphylococcus aureus ATCC 25923 after 16 hrs by broth microdilution method; assay type: functional; conditions: ATCC 25923, 16 h
Escherichia coli [4] = test: Antibacterial activity against Escherichia coli ATCC 25922 after 16 hrs by broth microdilution method in presence of peptide-R3; assay type: functional; conditions: ATCC 25922, 16 h
Escherichia coli [5] = test: Antibacterial activity against Escherichia coli ATCC 25922 after 16 hrs by broth microdilution method; assay type: functional; conditions: ATCC 25922, 16 h
Bacillus spizizenii [6] = test: Antibacterial activity against Bacillus subtilis ATCC 6633 after 16 hrs by broth microdilution method; assay type: functional; conditions: ATCC 6633, 16 h
Staphylococcus aureus [7] = test: Ratio of MIC for antibacterial activity against Staphylococcus aureus ATCC 25923 in absence of human plasma to MIC for antibacterial activity against Staphylococcus aureus ATCC 25923 in presence of human plasma; assay type: functional
[8] = Therapeutic index, ratio of HC50 for human erythrocytes to MIC for Staphylococcus aureus ATCC 25923; conditions: read-out: TI
Staphylococcus aureus [9] = test: Antibacterial activity against Staphylococcus aureus ATCC 25923 at 1 mg/ml after 3 hrs by broth microdilution method in presence of human plasma; assay type: functional; conditions: ATCC 25923, Plasma
MCF7 = test: Cytotoxicity against human MCF7 cells assessed as cell viability at 62.5 ug/ml after 6 hrs by spectroscopic analysis; assay type: cell-based; conditions: mcf7, 6 h
[10] = Toxicity against human erythrocytes assessed as hemolysis after 1 hr by spectrophotometric analysis; assay type: cell-based, Erythrocyte
Staphylococcus aureus [11] = test: Antibacterial activity against Staphylococcus aureus ATCC 25923 assessed as disruption of cell membrane at 4 times MIC after 2 hrs by DAPI/propidium iodide dye staining based confocal laser scanning microscopic analysis; assay type: functional, organism-based
Staphylococcus aureus [12] = test: Antibacterial activity against Staphylococcus aureus ATCC 25923 assessed as cell lysis at 4 times MIC after 2 hrs by transmission electron microscopic analysis; assay type: functional, organism-based
Staphylococcus aureus [13] = test: Antibacterial activity against Staphylococcus aureus ATCC 25923 at 1 mg/ml up to 18 hrs by broth microdilution method in presence of human plasma; assay type: functional; conditions: ATCC 25923, Plasma
[14] = Metabolic stability in human plasma assessed as compound remaining after 18 hrs by HPLC analysis; assay type: ADME, cell-free; conditions: read-out: Stability
[15] = Selectivity index, ratio of cytotoxicity for human MCF7 cells to MIC for Bacillus subtilis ATCC 6633; assay type: toxicity, cell-based; conditions: read-out: Selectivity Index
[16] = Therapeutic index, ratio of HC50 for human erythrocytes to MIC for Bacillus subtilis ATCC 6633; conditions: read-out: TI
[17] = Solubility of the compound in water at 40 mg sonicated for 15 mins at 25 degC measured after 5 hrs; assay type: physicochemical
[18] = Metabolic stability in human plasma assessed as compound remaining after 6 hrs by HPLC analysis; assay type: ADME, cell-free; conditions: read-out: Stability

Row | MIC (Staphylococcus aureus [3]) | MIC (Escherichia coli [5]) | MIC (Bacillus spizizenii [6]) | MIC (Staphylococcus aureus [9]) | MIC (Staphylococcus aureus [13]) | remaining at 18 h [14] | solubility at 5 h [17] | remaining at 6 h [18] | Compound | MIC (Bacillus spizizenii [1]) | MIC (Staphylococcus aureus [2]) | MIC (Escherichia coli [4]) | Ratio (Staphylococcus aureus [7]) | selectivity ratio [8] | Activity (MCF7) | HC50 at 1 h [10] | Activity (Staphylococcus aureus [11]) | Activity (Staphylococcus aureus [12]) | selectivity ratio [15] | selectivity ratio [16]
1 | 3.5 µM (≈ 3.87 µg/mL) | > 113 µM | 1.8 µM (≈ 1.99 µg/mL) | 3.5 µM | 3.5 µM | 87% | – | – | C=C(C)[C@@H]1CC[C@]2(C(=O)O)CC[C@]3(C)[C@H](CC[C@@H]4[C@@]5(C)CC[C@H](OC(=O)CCc6cn(CC(=O)N[C@@H](CCCNC(=N)N)C(=O)N[C@@H](CCCNC(=N)N)C(=O)N[C@@H](CCCNC(=N)N)C(=O)O)nn6)C(C)(C)[C@@H]5CC[C@]43C)[C@@H]12 | – | – | – | 2 | 62 | Non-toxic | 215 µM | Active | Active | 20 | 125
2 | – | – | – | – | – | – | 636 mg/mL (≈ 345 mM) | – | C=C(C)[C@@H]1CC[C@]2(C(=O)OCc3cn(CC(=O)N[C@@H](CCCNC(=N)N)C(=O)N[C@@H](CCCNC(=N)N)C(=O)N[C@@H](CCCNC(=N)N)C(=O)N[C@@H](CCCNC(=N)N)C(=O)N[C@@H](CCCNC(=N)N)C(=O)N[C@@H](CCCNC(=N)N)C(=O)N[C@@H](CCCNC(=N)N)C(=O)N[C@@H](CCCNC(=N)N)C(=O)O)nn3)CC[C@]3(C)[C@H](CC[C@@H]4[C@@]5(C)CC[C@H](O)C(C)(C)[C@@H]5CC[C@]43C)[C@@H]12 | – | – | – | – | 13 | – | 55 µM | – | – | – | 13
3 | 3.7 µM (≈ 3.94 µg/mL) | 14.7 µM (≈ 15.6 µg/mL) | 3.7 µM (≈ 3.94 µg/mL) | – | – | – | 98 mg/mL (≈ 92.1 mM) | – | C=C(C)[C@@H]1CC[C@]2(C(=O)OCc3cn(CC(=O)N[C@@H](CCCNC(=N)N)C(=O)N[C@@H](CCCNC(=N)N)C(=O)N[C@@H](CCCNC(=N)N)C(=O)O)nn3)CC[C@]3(C)[C@H](CC[C@@H]4[C@@]5(C)CC[C@H](O)C(C)(C)[C@@H]5CC[C@]43C)[C@@H]12 | – | – | – | – | 22 | – | 80 µM | – | – | – | 22
4 | 1.5 µM | 3.1 µM | 1.5 µM | – | – | 1% | – | 54% | H-GIGKFLKKAKKFGKAFVKILKK-OH | – | – | – | – | 100 | – | 153 µM | – | – | – | 100
5 | 5.7 µM (≈ 7.85 µg/mL) | > 91 µM | 2.8 µM (≈ 3.85 µg/mL) | – | – | – | 220 mg/mL (≈ 160 mM) | – | C=C(C)[C@@H]1CC[C@]2(C(=O)OCc3cn(CC(=O)N[C@@H](CCCNC(=N)N)C(=O)N[C@@H](CCCNC(=N)N)C(=O)N[C@@H](CCCNC(=N)N)C(=O)N[C@@H](CCCNC(=N)N)C(=O)N[C@@H](CCCNC(=N)N)C(=O)O)nn3)CC[C@]3(C)[C@H](CC[C@@H]4[C@@]5(C)CC[C@H](O)C(C)(C)[C@@H]5CC[C@]43C)[C@@H]12 | – | – | – | – | 6 | – | 35 µM | – | – | – | 12

Row | Compound | MIC (Staphylococcus aureus [3]) | MIC (Escherichia coli [5]) | MIC (Bacillus spizizenii [6]) | MIC (Staphylococcus aureus [9]) | MIC (Staphylococcus aureus [13]) | remaining at 18 h [14] | solubility at 5 h [17] | remaining at 6 h [18] | MIC (Bacillus spizizenii [1]) | MIC (Staphylococcus aureus [2]) | MIC (Escherichia coli [4]) | Ratio (Staphylococcus aureus [7]) | selectivity ratio [8] | Activity (MCF7) | HC50 at 1 h [10] | Activity (Staphylococcus aureus [11]) | Activity (Staphylococcus aureus [12]) | selectivity ratio [15] | selectivity ratio [16]
6 | C=C(C)[C@@H]1CC[C@]2(C(=O)O)CC[C@]3(C)[C@H](CC[C@@H]4[C@@]5(C)CC[C@H](O)C(C)(C)[C@@H]5CC[C@]43C)[C@@H]12 [BETULINIC ACID] | 547 µM (≈ 250 µg/mL) | > 1100 µM | 547 µM (≈ 250 µg/mL) | – | – | – | – | – | > 531 µM | > 531 µM | > 531 µM | – | – | – | – | – | – | – | –
